This assay has as its target human IDO1 (Homo sapiens, UniProt P14902). Kind of assay: Assessment of human IDO-1 inhibitory activity in Hela cells (Interferon-gamma stimulated HeLa cells, Ehrlich reagent, absorbance 490 nm). Also noted: endogenous in cells; host or cells: HeLa cells stimulated with interferon-gamma. The class given is cell-based. Particulars: Hela Human IDO-1 cellular assay. In outline: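 IDO activity induced by 18 h IFN-γ (human 10 ng/ml or murine 5 ng/ml, final) after 1 h compound pre-treatment of HeLa cells at 37 °C. Supernatant kynurenine detected via Ehrlich reagent absorbance at 490 nm following 3% TCA at 50 °C; IC50 set against no-IFN-γ and untreated-stimulated controls.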

The structures appear in SMILES notation. Where only a bound is given, the exact number is not on record here.

Drawing on patent publication US9790169B2, “IDO inhibitors” (BRISTOL-MYERS SQUIBB COMPANY, priority 2015, dated 2017), this text covers IC50 for 26 compounds.

human IDO1, sequence (P14902 whole entry): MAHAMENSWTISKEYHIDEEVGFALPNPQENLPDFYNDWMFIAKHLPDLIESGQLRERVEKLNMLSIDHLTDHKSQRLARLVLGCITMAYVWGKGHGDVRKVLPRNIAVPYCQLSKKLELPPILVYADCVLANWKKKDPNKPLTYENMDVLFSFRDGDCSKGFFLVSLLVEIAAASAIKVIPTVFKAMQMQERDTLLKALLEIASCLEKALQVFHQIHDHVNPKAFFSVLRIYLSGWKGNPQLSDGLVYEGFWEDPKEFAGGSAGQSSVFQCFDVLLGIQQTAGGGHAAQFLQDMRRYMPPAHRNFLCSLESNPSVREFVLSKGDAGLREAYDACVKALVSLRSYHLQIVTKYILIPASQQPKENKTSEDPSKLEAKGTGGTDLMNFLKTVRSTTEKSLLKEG

In turn, `CCOc1ncc(Nc2cc(C(CC)CC(=O)O)ccc2N(C)C2CCOCC2)cn1` (single isomer, unassigned) [Example 869, 3-(3-((2-ethoxy-pyrimidin-5-yl)amino)-4-(methyl (tetrahydro-2H-pyran-4-yl)amino)phenyl) pentanoic acid] came in with an IC50 of less than 50 nM.

As for `CCC(CC(=O)O)c1ccc(N(C)C2CCOCC2)c(Nc2ccc(C#N)cc2)c1` (single isomer, unassigned) [Example 870, 3-(3-((4-Cyanophenyl)amino)-4-(methyl(tetrahydro-2H-pyran-4-yl)amino)phenyl)pentanoic acid], the IC50 is less than 5 nM.

On to `CCC(CC(=O)O)c1ccc(N(C)C2CCOCC2)c(Nc2cnc(OC)nc2)c1` (single isomer, unassigned) [Example 871, 3-(3-((2-methoxy-pyrimidin-5-yl)amino)-4-(methyl(tetra-hydro-2H-pyran-4-yl)amino)phenyl) pentanoic acid], for which the IC50 is more than 50 nM.

In turn, `COCC(CC(=O)O)c1ccc(N(C)C2CCOCC2)c(Nc2ccc(C#N)cc2)c1` (single isomer, unassigned) [Example 873, 3-(3-((4-Cyanophenyl)amino)-4-(methyl(tetrahydro-2H-pyran-4-yl)amino)phenyl)-4-methoxybutanoic acid] displayed an IC50 of less than 50 nM.

In turn, `COCC(CC(=O)O)c1ccc(N(C)C2CCOCC2)c(Nc2ccc(C#N)cn2)c1` (single isomer, unassigned) [Example 874, 3-(3-((5-cyanopyridin-2-yl)amino)-4-(methyl (tetrahydro-2H-pyran-4-yl)amino)phenyl)-4-methoxybutanoic acid] showed a half-maximal inhibitory concentration (IC50) of less than 5 nM.

Take `COCC(CC(=O)O)c1ccc(N(C)C2CCOCC2)c(Nc2ccc(C#N)c(F)c2)c1` (single isomer, unassigned) [Example 875, 3-(3-((4-cyano-3-fluorophenyl)amino)-4-(methyl(tetrahydro-2H-pyran-4-yl)amino)phenyl)-4-methoxybutanoic acid]: the IC50 is less than 50 nM.

`COCC(CC(=O)O)c1ccc(N(C)C2CCOCC2)c(Nc2ccc(C#N)cc2F)c1` (single isomer, unassigned) [Example 876, 3-(3-((4-cyano-2-fluorophenyl)amino)-4-(methyl(tetrahydro-2H-pyran-4-yl)amino)phenyl)-4-methoxybutanoic acid] registered a half-maximal inhibitory concentration (IC50) of less than 50 nM.

As for `COCC(CC(=O)O)c1ccc(N(C)C2CCOCC2)c(Nc2ccc(Cl)cc2)c1` (single isomer, unassigned) [Example 877, 3-(3-((4-chlorophenyl)amino)-4-(methyl(tetrahydro-2H-pyran-4-yl)amino)phenyl)-4-methoxybutanoic acid], the half-maximal inhibitory concentration (IC50) is more than 50 nM.

Turning to `CCOc1ncc(Nc2cc(C(COC)CC(=O)O)ccc2N(C)C2CCOCC2)cn1` (single isomer, unassigned) [Example 878, 3-(3-((2-ethoxypyrimidin-5-yl)amino)-4-(methyl (tetrahydro-2H-pyran-4-yl)amino)phenyl)-4-methoxybutanoic acid], the IC50 was more than 50 nM.

The compound `COCC(CC(=O)O)c1ccc(N(C)C2CCOCC2)c(NC(=O)Nc2ccc(Cl)cc2F)c1` (single isomer, unassigned) [Example 879, 3-(3-(3-(4-Chloro-2-fluorophenyl)ureido)-4-(methyl(tetrahydro-2H-pyran-4-yl)amino)phenyl)-4-methoxybutanoic acid] showed an IC50 of more than 50 nM.

For `COCC(CC(=O)O)c1ccc(N(C)C2CCOCC2)c(Nc2ccc(C#N)cn2)c1` (single isomer, unassigned) [Example 881, 3-(3-((5-cyanopyridin-2-yl)amino)-4-(methyl (tetrahydro-2H-pyran-4-yl)amino)phenyl)-4-methoxybutanoic acid], the IC50 is more than 50 nM.

The compound `COCC(CC(=O)O)c1ccc(N(C)C2CCOCC2)c(Nc2ccc(Cl)cc2)c1` (single isomer, unassigned) [Example 884, 3-(3-((4-chlorophenyl)amino)-4-(methyl(tetrahydro-2H-pyran-4-yl)amino)phenyl)-4-methoxybutanoic acid] gave an IC50 of less than 5 nM.

Take `COCC(CC(=O)O)c1ccc(N(C)C2CCOCC2)c(NC(=O)Nc2ccc(Cl)cc2F)c1` (single isomer, unassigned) [Example 886, 3-(3-(3-(4-Chloro-2-fluorophenyl)ureido)-4-(methyl(tetrahydro-2H-pyran-4-yl)amino)phenyl)-4-methoxybutanoic acid]: the IC50 was more than 50 nM.

As to `CCC(CC(=O)O)c1ccc(N2CCOC[C@H]2C(C)C)c(Nc2ccc(C#N)cc2)c1` (single isomer, unassigned) [Example 887], the IC50 was less than 5 nM.

`CCC(CC(=O)O)c1ccc(N2CCOC[C@H]2C(C)C)c(Nc2ccc(Cl)cc2)c1` (single isomer, unassigned) [Example 888]: the IC50 was less than 5 nM.

For `CCC(CC(=O)O)c1ccc(N2CCOC[C@H]2C(C)C)c(Nc2ccc(F)cc2)c1` (single isomer, unassigned) [Example 889], the IC50 was less than 5 nM.

In turn, `CCc1ccc(Nc2cc(C(CC)CC(=O)O)ccc2N2CCOC[C@H]2C(C)C)cc1` (single isomer, unassigned) [Example 890] came in with an IC50 of less than 50 nM.

As for `COCC(CC(=O)O)c1ccc(N2CCOC[C@H]2C(C)C)c(Nc2ccc(C#N)cc2)c1` (single isomer, unassigned) [Example 909], the IC50 is less than 50 nM.

For the compound `COCC(CC(=O)O)c1ccc(N2CCOC[C@H]2C(C)C)c(Nc2ccc(Cl)cc2)c1` (single isomer, unassigned) [Example 910], the IC50 is less than 50 nM.

In turn, `COCC(CC(=O)O)c1ccc(N2CCOC[C@H]2C(C)C)c(NC(=O)Nc2ccc(C#N)cc2)c1` (single isomer, unassigned) [Example 911] registered a half-maximal inhibitory concentration (IC50) of more than 50 nM.

The compound `COCC(CC(=O)O)c1ccc(N2CCOC[C@H]2C(C)C)c(Nc2ccc(C#N)cc2)c1` (single isomer, unassigned) [Example 912] came in with an IC50 of less than 5 nM.

`COCC(CC(=O)O)c1ccc(N2CCOC[C@H]2C(C)C)c(Nc2ccc(Cl)cc2)c1` (single isomer, unassigned) [Example 913] yielded an IC50 of less than 5 nM.

In turn, `CCOc1ncc(Nc2cc(C(COC)CC(=O)O)ccc2N2CCOC[C@H]2C(C)C)cn1` (single isomer, unassigned) [Example 914] returned an IC50 of more than 50 nM.

Consider `CCN(c1c(F)cc(C(COC)CC(=O)O)cc1Nc1ccc(C#N)cc1)C1CCOCC1` (single isomer, unassigned) [Example 916, 3-(3-((4-Cyanophenyl)amino)-4-(ethyl(tetrahydro-2H-pyran-4-yl)amino)-5-fluorophenyl)-4-methoxybutanoic acid], for which the IC50 is less than 5 nM.

The compound `CCN(c1c(F)cc(C(COC)CC(=O)O)cc1Nc1ccc(C#N)cc1)C1CCOCC1` (single isomer, unassigned) [Example 918, 3-(3-((4-Cyanophenyl)amino)-4-(ethyl(tetrahydro-2H-pyran-4-yl)amino)-5-fluorophenyl)-4-methoxybutanoic acid] displayed an IC50 of less than 50 nM.

For `CCN(c1c(F)cc(C(COC)CC(=O)O)cc1NC(=O)Nc1ccc(Cl)cc1F)C1CCOCC1` (single isomer, unassigned) [Example 919, 3-(3-(3-(4-Chloro-2-fluorophenyl)ureido)-4-(ethyl(tetrahydro-2H-pyran-4-yl)amino)-5-fluorophenyl)-4-methoxybutanoic acid], the IC50 was more than 50 nM.
